Measurements reported in patent publication US6214859A, “Ethylamine derivatives” (Fujimoto Brothers Co., Ltd., priority 1997, dated 2001).
Values joined by “and” are separate entries in the source; they are usually repeats but may differ in a detail not shown here. Equal values may be shown once.

How the values were obtained:
serotonin release, raphe = test: Release of biogenic amines from brain tissue: serotonin, raphe; type: in vivo, Wistar rats
human platelet MAO-B = molecular target: T1, human platelet MAO-B (Homo sapiens, UniProt P27338); test: biochemical; conditions: 10^-5 M; read-out: Inhibition rate of MAO-B
T1 construct: The suspension was used as enzyme for MAO activity assay in blood platelets; from tissue; host or cells: human blood platelets (frozen, thawed and sonicated platelet rich plasma)
T1 sequence (P27338 1-520): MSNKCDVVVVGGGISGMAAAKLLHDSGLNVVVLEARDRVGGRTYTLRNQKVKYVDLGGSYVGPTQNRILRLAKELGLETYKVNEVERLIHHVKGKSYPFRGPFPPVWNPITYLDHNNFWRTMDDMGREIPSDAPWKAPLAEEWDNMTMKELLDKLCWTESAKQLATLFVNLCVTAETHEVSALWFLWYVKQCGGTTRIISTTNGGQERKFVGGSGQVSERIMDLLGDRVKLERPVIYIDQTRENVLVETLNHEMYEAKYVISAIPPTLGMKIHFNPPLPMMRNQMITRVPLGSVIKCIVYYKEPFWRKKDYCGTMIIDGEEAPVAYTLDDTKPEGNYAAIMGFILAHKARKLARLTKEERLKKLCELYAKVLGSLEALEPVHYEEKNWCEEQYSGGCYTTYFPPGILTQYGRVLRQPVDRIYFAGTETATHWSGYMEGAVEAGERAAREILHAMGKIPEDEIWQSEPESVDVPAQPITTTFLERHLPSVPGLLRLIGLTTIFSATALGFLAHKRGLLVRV
Procedure: Human blood added with 3.8% citric acid was centrifuged at 950 rpm for 10 min and platelet rich plasma (PRP) was obtained. The residual blood cell was centrifuged at 3,000 rpm for 10 min and platelet poor plasma (PPP) was obtained. After blood platelets were measured from a part of PRP, PRP and PPP were frozen at -20° C. They were thawed and were sonicated to be dispersed and suspended when MAO activity was measured. The suspension was used as enzyme for MAO activity assay in blood platelets. In addition, almost all of MAO in blood platelets have been known to be B type.
MAO-B activity was determined according to the method described in Biochem. Pharmacol., 14, 1684-1685 (1965). […] The mixture was incubated at 37° C. for 5 min. After 80 μl of PRP or PPP was added to it, the mixture was incubated at 37° C. for 20 min. Thereafter, 120 μl of substrate (0.33 mg/ml kynuramine dihydrobromide) was added thereto. After incubation at 37° C. for 30 min, 800 μl of 10% trichloroacetic acid were added to stop the reaction and the solution was centrifuged at 3,000 rpm for 10 min. To 1 ml of the supernatant, 2 ml of 1 N NaOH was added and fluorescence of the solution was measured at Ex 312 nm and Em 380 nm. PRP was prepared to 250,000 cell/μl as amounts of blood platelets with […] phosphate buffer solution and 4-hydroxyquinoline was used as standard for measurement.

[1] = system: dopamine release, striatum; test: Release of biogenic amines from brain tissue: dopamine, striatum; type: in vivo, Wistar rats
[2] = Toxicity screening using primary cultured hepatocyte (LDH release); type: cell-based, rat; conditions: rat, primary hepatocytes, 24 hr, control 0.5% saline or 0.5% DMSO, read-out: Percent control of LDH release
Procedure: The hepatocytes was prepared from rat liver by collagenase perfusion method and suspension containing 5×10^5 cells/ml were prepared. After cultivation for 24 hr, the suspension was exchanged to the William's Medium E (GIBCO BRL) containing 10 or 100 μM of the compounds of this invention. After cultivation for 24 hr, the activity of lactate dehydrogenase (LDH) released in the medium was measured.

[3] = system: noradrenaline release, locus coeruleus; test: Release of biogenic amines from brain tissue: noradrenaline, locus coeruleus; type: in vivo, Wistar rats
[4] = system: dopamine release, substantia nigra; test: Release of biogenic amines from brain tissue: dopamine, substantia nigra; type: in vivo, Wistar rats
[5] = system: dopamine release, tuberculum olfactorium; test: Release of biogenic amines from brain tissue: dopamine, tuberculum olfactorium; type: in vivo, Wistar rats

CCCNC(CCC)Cc1ccc2c(c1)OCO2.Cl (stereo not shown) [Compound No. 27, 1-(1,3-Benzodioxol-5-yl)-2-propylaminopentane Hydrochloride]
Release of serotonin, raphe (serotonin release, raphe; 0.10 mg/kg s.c.): 0.399 ± 0.00 nmol/g tissue, for 20 min
Release of serotonin, raphe (serotonin release, raphe; 0.25 mg/kg s.c.): 0.414 ± 0.01 nmol/g tissue, for 20 min
inhibition at 10 µM (human platelet MAO-B): 34%
Release of dopamine, striatum ([1]; 0.10 mg/kg s.c.): 3.4 ± 0.10 nmol/g tissue, for 20 min
Release of dopamine, striatum ([1]; 0.25 mg/kg s.c.): 4.1 ± 0.24 nmol/g tissue, for 20 min
activity at 24 h, 10 µM [2]: 115 ± 10.8%
activity at 24 h, 100 µM [2]: 114 ± 11.2%
Release of noradrenaline, locus coeruleus ([3]; 0.10 mg/kg s.c.): 3.8 ± 0.15 nmol/g tissue, for 20 min
Release of noradrenaline, locus coeruleus ([3]; 0.25 mg/kg s.c.): 3.5 ± 0.20 nmol/g tissue, for 20 min
Release of dopamine, substantia nigra ([4]; 0.10 mg/kg s.c.): 7.8 ± 0.44 nmol/g tissue, for 20 min
Release of dopamine, substantia nigra ([4]; 0.25 mg/kg s.c.): 9.5 ± 0.32 nmol/g tissue, for 20 min
Release of dopamine, tuberculum olfactorium ([5]; 0.10 mg/kg s.c.): 4.7 ± 0.13 nmol/g tissue, for 20 min
Release of dopamine, tuberculum olfactorium ([5]; 0.25 mg/kg s.c.): 5.2 ± 0.23 nmol/g tissue, for 20 min

CCCNC(CCC)Cc1c[nH]c2ccccc12.Cl (stereo not shown) [Compound No. 20, 1-(Indol-3-yl)-2-propylaminopentane Hydrochloride]
Release of serotonin, raphe (serotonin release, raphe; 0.005 mg/kg s.c.): 0.492 ± 0.02 nmol/g tissue, for 20 min
Release of serotonin, raphe (serotonin release, raphe; 0.01 mg/kg s.c., Hydrochloride): 0.961 ± 0.02 nmol/g tissue, for 20 min and 0.938 ± 0.01 nmol/g tissue, for 20 min
Release of serotonin, raphe (serotonin release, raphe; 0.05 mg/kg s.c.): 1.203 ± 0.08 nmol/g tissue, for 20 min
Release of serotonin, raphe (serotonin release, raphe; 0.25 mg/kg s.c.): 0.481 ± 0.05 nmol/g tissue, for 20 min
Release of serotonin, raphe (serotonin release, raphe; 1.00 mg/kg s.c.): 0.355 ± 0.05 nmol/g tissue, for 20 min
Release of serotonin, raphe (serotonin release, raphe; 5.00 mg/kg s.c.): 0.565 ± 0.01 nmol/g tissue, for 20 min
inhibition at 10 µM (human platelet MAO-B): 6.4%
Release of dopamine, striatum ([1]; 0.005 mg/kg s.c.): 5.8 ± 0.11 nmol/g tissue, for 20 min
Release of dopamine, striatum ([1]; 0.01 mg/kg s.c., Hydrochloride): 6.5 ± 0.12 nmol/g tissue, for 20 min and 5.8 ± 0.18 nmol/g tissue, for 20 min
Release of dopamine, striatum ([1]; 0.05 mg/kg s.c.): 5.6 ± 0.13 nmol/g tissue, for 20 min
Release of dopamine, striatum ([1]; 0.25 mg/kg s.c.): 3.2 ± 0.05 nmol/g tissue, for 20 min
Release of dopamine, striatum ([1]; 1.00 mg/kg s.c.): 4.2 ± 0.15 nmol/g tissue, for 20 min
Release of dopamine, striatum ([1]; 5.00 mg/kg s.c.): 4.7 ± 0.13 nmol/g tissue, for 20 min
activity at 24 h, 10 µM [2]: 92.7 ± 5.31%
activity at 24 h, 100 µM [2]: 185 ± 3.45%
Release of noradrenaline, locus coeruleus ([3]; 0.005 mg/kg s.c.): 5.3 ± 0.30 nmol/g tissue, for 20 min
Release of noradrenaline, locus coeruleus ([3]; 0.01 mg/kg s.c., Hydrochloride): 4.3 ± 0.10 nmol/g tissue, for 20 min and 2.2 ± 0.15 nmol/g tissue, for 20 min
Release of noradrenaline, locus coeruleus ([3]; 0.05 mg/kg s.c.): 3.2 ± 0.15 nmol/g tissue, for 20 min
Release of noradrenaline, locus coeruleus ([3]; 0.25 mg/kg s.c.): 4.3 ± 0.15 nmol/g tissue, for 20 min
Release of noradrenaline, locus coeruleus ([3]; 1.00 mg/kg s.c.): 4.4 ± 0.25 nmol/g tissue, for 20 min
Release of noradrenaline, locus coeruleus ([3]; 5.00 mg/kg s.c.): 3.5 ± 0.20 nmol/g tissue, for 20 min
Release of dopamine, substantia nigra ([4]; 0.005 mg/kg s.c.): 8.7 ± 0.13 nmol/g tissue, for 20 min
Release of dopamine, substantia nigra ([4]; 0.01 mg/kg s.c., Hydrochloride): 10.3 ± 0.23 nmol/g tissue, for 20 min and 10.0 ± 0.14 nmol/g tissue, for 20 min
Release of dopamine, substantia nigra ([4]; 0.05 mg/kg s.c.): 7.7 ± 0.15 nmol/g tissue, for 20 min
Release of dopamine, substantia nigra ([4]; 0.25 mg/kg s.c.): 5.2 ± 0.26 nmol/g tissue, for 20 min
Release of dopamine, substantia nigra ([4]; 1.00 mg/kg s.c.): 6.7 ± 0.19 nmol/g tissue, for 20 min
Release of dopamine, substantia nigra ([4]; 5.00 mg/kg s.c.): 5.7 ± 0.18 nmol/g tissue, for 20 min
Release of dopamine, tuberculum olfactorium ([5]; 0.005 mg/kg s.c.): 7.0 ± 0.25 nmol/g tissue, for 20 min
Release of dopamine, tuberculum olfactorium ([5]; 0.01 mg/kg s.c., Hydrochloride): 8.0 ± 0.17 nmol/g tissue, for 20 min and 5.5 ± 0.20 nmol/g tissue, for 20 min
Release of dopamine, tuberculum olfactorium ([5]; 0.05 mg/kg s.c.): 5.8 ± 0.19 nmol/g tissue, for 20 min
Release of dopamine, tuberculum olfactorium ([5]; 0.25 mg/kg s.c.): 3.5 ± 0.21 nmol/g tissue, for 20 min
Release of dopamine, tuberculum olfactorium ([5]; 1.00 mg/kg s.c.): 4.3 ± 0.07 nmol/g tissue, for 20 min
Release of dopamine, tuberculum olfactorium ([5]; 5.00 mg/kg s.c.): 4.8 ± 0.09 nmol/g tissue, for 20 min
